Like-named read-outs stand apart in the source and are kept apart here.
Legend:
[1] = human, in vivo
[2] = Amino acids plasma modifications induced by acute ingestion of the mixture
athletes = test: Comparative study in athletes: bench press, squat Romano, maximal power on braked bicycle ergometer; assay type: in vivo, human
Excerpt: The effects on energy balance of the an amino acids mixture according to the invention as above indicated were the subject of a comparative study with creatine, on a weight ratio (w/w), or with no treatment, on a large group of volunteers submitted to a rigid protocol of alimentation and training.

[3] = 15' after acute ingestion of the mixture according to the invention
[4] = 30' after acute ingestion of the mixture according to the invention
[5] = 60' after acute ingestion of the mixture according to the invention

SMILES	Amino acid plasma level ([1]; 15 min)	Amino acid plasma level ([1]; 30 min)	Amino acid plasma level ([1]; 60 min)	Amino acid plasma level [2, 3]	Amino acid plasma level [2, 4]	Amino acid plasma level [2, 5]	Watt/Kg max (maximal power productive performance on a braked bicycle ergometer) (athletes; after one month of treatment and training, mixture 24 g/d, creatine 25 g/d) [watt/kg max]	Performances over basal and no treatment group (athletes; one month treatment and training)
N=C(N)NCCC[C@H](N)C(=O)O [Arginine]	85 ± 15	97 ± 13	82 ± 16					
N[C@@H](CS)C(=O)O [Cysteine]	54 ± 6	61 ± 8	49 ± 7					
N[C@@H](CCC(=O)O)C(=O)O [Glutamate]				563 ± 69	606 ± 32	502 ± 43		
N[C@@H](CCC(=O)O)C(=O)O [Glutamic acid]				42 ± 6	44 ± 7	41 ± 5		
CC[C@H](C)[C@H](N)C(=O)O [Isoleucine]	156 ± 24	162 ± 31	147 ± 32					
CC(C)C[C@H](N)C(=O)O [Leucine]	68 ± 16	109 ± 19	71 ± 9					
NCCCC[C@H](N)C(=O)O [Lysine]	182 ± 17	194 ± 26	179 ± 18					
CSCC[C@H](N)C(=O)O [Methionine]	30 ± 6	32 ± 9	27 ± 4					
N[C@@H](Cc1ccccc1)C(=O)O [Phenylalanine]	56 ± 9	61 ± 10	55 ± 7					
C[C@@H](O)[C@H](N)C(=O)O [Threonine]	121 ± 15	137 ± 21	120 ± 16					
N[C@@H](Cc1ccc(O)cc1)C(=O)O [Tyrosine]	62 ± 9	65 ± 14	59 ± 7					
CC(C)[C@H](N)C(=O)O [Valine]	256 ± 19	294 ± 32	249 ± 26					
CN(CC(=O)O)C(=N)N [creatine]							9.8 ± 0.6	significant improvements of performances
